These results are taken from patent US20240317775A1, “H4 Antagonist Compounds” (HEPTARES THERAPEUTICS LIMITED, priority 2020, published 2024).

One may read the inhibition as the drop in the measured response relative to a control, in per cent.

What all share (format): cell-based
For series [1], the target named is T1, human H4 receptor (Homo sapiens, UniProt Q9H3N8).
T1 construct: expressed in transfected cells; host or cells: HEKf cells infected with baculovirus
Description: H4 Antagonist Functional Dynamic Mass Redistribution Assay. As to conditions: HEKf cells expressing human H4 receptor; functional antagonist pKb by Cheng-Prusoff vs histamine EC80; read-out: Human H4 DMR fpKb (converted). The procedure:
HEKf cells were infected using baculovirus expressing the human H4 receptor, plated into fibronectin-coated EPIC plates at a density of 10,000 cells/well and incubated overnight at 37° C. The medium on cells was changed to 30 μL HBSS with 20 mM HEPES per well and 30 nL DMSO were added per well by LabCyte ECHO acoustic dispensing. Following 2 h equilibration at room temperature, 30 nL of H4 ligands prepared in DMSO were stamped by LabCyte ECHO acoustic dispensing into seeded EPIC plates and cellular dynamic mass redistribution was monitored using a Corning EPIC plate reader. Following 45 min measurement, 30 nL/well of histamine EC80 was added and monitored to obtain antagonist assay data. Maximum baseline-corrected responses in pm were used to generate concentration response curves. EC50 values were generated using a 4-parameter logistical fit equation to quantify agonist potencies. Functional antagonist affinity values were generated using the Cheng-Prusoff equation to calculate a pKb value using the antagonist assay data.

For a further series, the target named is hERG (Homo sapiens, UniProt Q12809). Nature of the series: hERG single-concentration assay (QPatch automated patch clamp, CHO cells, 30 μM). As to conditions: CHO cells stably expressing hERG. From the text:
Series resistance (4-15 MΩ) was compensated by >80%.
On the technique in general: hERG is a cardiac potassium channel; its block is linked to QT prolongation.

The target in series [2] is T1, human H4 receptor. Description: H4 Antagonist Functional cAMP Gi Assay. The note with it: HEKf cells expressing human H4 receptor; functional antagonist pKb by Cheng-Prusoff vs histamine; read-out: Human H4 cAMP fpKb (converted). The procedure: HEKf cells were infected overnight using baculovirus expressing the human H4 receptor, then centrifuged at 1,200 rpm for 5 min, frozen in cell freezing medium (Sigma) and stored at −150° C. On the day of assay, the cells were thawed and resuspended in HBSS with 500 nM IBMX to achieve a density of 1,500 cells/well. H4 ligands were prepared in DMSO and stamped by LabCyte ECHO acoustic dispensing at 25 nL in low volume plates. 10 μL/well cells were plated in the presence of 1 μM forskolin, subjected to centrifugation at 1,200 rpm for 1 min and incubated for 30 min prior to addition of Cisbio cAMP detection reagents to a total volume 20 μL/well. […] Following detection reagent addition and shaking at room temperature for 60 min, cAMP accumulation was measured using HTRF on a PheraStar plate reader. EC50 values were generated using a 4-parameter logistical fit equation to quantify agonist potencies. Functional antagonist affinity values were generated using the Cheng-Prusoff equation to calculate a pKb value using the antagonist assay data.

Chain of hERG (Q12809 whole entry): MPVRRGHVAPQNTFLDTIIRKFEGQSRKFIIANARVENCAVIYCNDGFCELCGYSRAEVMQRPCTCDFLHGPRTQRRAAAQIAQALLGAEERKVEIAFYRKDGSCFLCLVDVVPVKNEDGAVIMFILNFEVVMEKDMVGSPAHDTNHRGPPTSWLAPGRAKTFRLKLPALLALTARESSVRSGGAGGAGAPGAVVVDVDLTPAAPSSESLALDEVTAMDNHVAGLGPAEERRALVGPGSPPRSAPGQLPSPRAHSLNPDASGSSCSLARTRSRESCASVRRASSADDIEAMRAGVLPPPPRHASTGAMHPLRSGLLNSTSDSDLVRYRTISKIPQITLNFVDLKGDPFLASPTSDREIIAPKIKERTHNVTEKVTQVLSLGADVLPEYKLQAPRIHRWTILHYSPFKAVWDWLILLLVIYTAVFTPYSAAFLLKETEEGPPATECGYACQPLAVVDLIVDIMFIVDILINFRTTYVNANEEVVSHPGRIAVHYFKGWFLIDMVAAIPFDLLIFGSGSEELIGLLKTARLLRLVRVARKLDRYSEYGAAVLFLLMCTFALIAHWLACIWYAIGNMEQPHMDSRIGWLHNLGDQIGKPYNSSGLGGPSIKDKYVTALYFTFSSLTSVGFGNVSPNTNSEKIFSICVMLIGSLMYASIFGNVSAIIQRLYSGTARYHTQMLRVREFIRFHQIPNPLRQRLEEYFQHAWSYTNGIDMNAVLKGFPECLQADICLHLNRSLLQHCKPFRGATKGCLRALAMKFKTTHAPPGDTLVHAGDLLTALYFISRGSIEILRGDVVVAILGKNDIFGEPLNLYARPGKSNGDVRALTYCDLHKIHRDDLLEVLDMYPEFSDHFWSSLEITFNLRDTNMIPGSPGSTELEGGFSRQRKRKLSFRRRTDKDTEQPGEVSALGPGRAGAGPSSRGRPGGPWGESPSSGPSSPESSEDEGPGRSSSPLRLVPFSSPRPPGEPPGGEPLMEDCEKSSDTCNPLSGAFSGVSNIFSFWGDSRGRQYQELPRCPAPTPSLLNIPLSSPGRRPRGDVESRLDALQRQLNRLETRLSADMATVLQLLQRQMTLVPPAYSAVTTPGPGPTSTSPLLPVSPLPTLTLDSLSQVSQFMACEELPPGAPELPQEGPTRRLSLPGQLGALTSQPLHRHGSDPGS
T1 sequence (Q9H3N8 whole entry): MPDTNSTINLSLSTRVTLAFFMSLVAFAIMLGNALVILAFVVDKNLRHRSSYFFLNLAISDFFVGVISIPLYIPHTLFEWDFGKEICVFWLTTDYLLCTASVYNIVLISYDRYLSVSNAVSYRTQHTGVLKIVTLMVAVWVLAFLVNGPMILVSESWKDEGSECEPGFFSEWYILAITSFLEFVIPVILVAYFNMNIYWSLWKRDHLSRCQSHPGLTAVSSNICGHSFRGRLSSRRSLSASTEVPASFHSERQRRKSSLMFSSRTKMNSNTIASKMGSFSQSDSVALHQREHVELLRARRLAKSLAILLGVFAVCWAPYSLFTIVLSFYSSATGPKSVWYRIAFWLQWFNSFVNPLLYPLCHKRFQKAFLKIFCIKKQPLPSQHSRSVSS

For the compound `CN[C@@H]1CCN(c2ncnc3c2OCC2(CCCC2)N3)C1` [Example 17-12, (3R)—N-methyl-1-(6′H,8′H-spiro[cyclopentane-1,7′-pyrimido[5,4-b][1,4]oxazin]-4′-yl)pyrrolidin-3-amine], at human H4 receptor [1], the Kb is 7.94 nM. The same measure, in the same setting: in the case of `CCC1(C)CCOc2c(nc(N)nc2N2CC[C@@H](NC)C2)N1` (stereo partly drawn) [Example 17-10, 8-ethyl-8-methyl-4-[(3R)-3-(methylamino)pyrrolidin-1-yl]-6,7,8,9-tetrahydropyrimido[5,4-b][1,4]oxazepin-2-amine] it was 10 nM; in that of `CN[C@@H]1CCN(c2nc(N)nc3c2OCC2(CC(F)(F)C2)N3)C1` [Example 17-15, 3,3-difluoro-4′-[(3R)-3-(methylamino)pyrrolidin-1-yl]-6′H,8′H-spiro[cyclobutane-1,7′-pyrimido[5,4-b][1,4]oxazin]-2′-amine], 7.94 nM.

As to `CN[C@@H]1CCN(c2nc(N)nc3c2OC[C@@H]([C@@H](C)OC)N3)C1` [Example 1-10, (S)-7-((R)-1-Methoxyethyl)-4-((R)-3-(methylamino)pyrrolidin-1-yl)-7,8-dihydro-6H-pyrimido[5,4-b][1,4]oxazin-2-amine], the inhibition at 30 µM on hERG stood at 12%. Moreover, the Kb at human H4 receptor [2] is 6.31 nM.

As to `CN[C@@H]1CCN(c2nc(N)nc3c2OCC(C(F)(F)F)N3)C1` (stereo partly drawn) [Example 1-8, 4-((R)-3-(Methylamino)pyrrolidin-1-yl)-7-(trifluoromethyl)-7,8-dihydro-6H-pyrimido[5,4-b][1,4]oxazin-2-amine], the inhibition at 30 µM at hERG was found to be 19%. Also, on human H4 receptor [2], the Kb was 10 nM.

`CC[C@@H]1COc2c(nc(N)nc2N2CC[C@@H](NC)C2)N1` [Example 1-3, (R)-7-Ethyl-4-((R)-3-(methylamino)pyrrolidin-1-yl)-7,8-dihydro-6H-pyrimido[5,4-b][1,4]oxazin-2-amine]: 30 µM produced 18% inhibition against hERG. Moreover, the Kb on human H4 receptor [2] was 1 nM. On hERG, `CNC1CN(c2nc(N)nc3c2OC[C@@H]([C@@H](C)OC)N3)C1` [Example 3-4, (S)-7-((R)-1-Methoxyethyl)-4-(3-(methylamino)azetidin-1-yl)-7,8-dihydro-6H-pyrimido[5,4-b][1,4]oxazin-2-amine] returned an inhibition at 30 µM of 12%. Moreover, the Kb at human H4 receptor [2] is 12.6 nM.

On to `CC(C)[C@@H]1COc2c(nc(N)nc2N2CCN(C)CC2)N1` [Example 5-1, (R)-7-Isopropyl-4-(4-methylpiperazin-1-yl)-7,8-dihydro-6H-pyrimido[5,4-b][1,4]oxazin-2-amine], for which the inhibition at 30 µM against hERG amounted to 44%. Besides, the Kb on human H4 receptor [2] was 3.16 nM. Compound `CN[C@@H]1CCN(c2ncnc3c2OCC(COC)N3)C1` (stereo partly drawn) [Example 7-3, (3R)-1-(7-(Methoxymethyl)-7,8-dihydro-6H-pyrimido[5,4-b][1,4]oxazin-4-yl)-N-methylpyrrolidin-3-amine] had an inhibition at 30 µM against hERG of 48%. Also, the Kb on human H4 receptor [2] is 316 nM. For `CC(C)[C@@H]1COc2c(nc(N)nc2N2CCNCC2)N1` [Example 6-1, (R)-7-Isopropyl-4-(piperazin-1-yl)-7,8-dihydro-6H-pyrimido[5,4-b][1,4]oxazin-2-amine] the same measures were 13% and 3.98 nM. `CN[C@@H]1CCN(c2ncnc3c2OCC2(CC(F)(F)C2)N3)C1` [Example 17-13, (3R)-1-(3,3-difluoro-6′H,8′H-spiro[cyclobutane-1,7′-pyrimido[5,4-b][1,4]oxazin]-4′-yl)-N-methylpyrrolidin-3-amine]: the Kb at human H4 receptor [1] was 3.98 nM. Take `Nc1nc2c(c(N3CC[C@@H](N)C3)n1)OCC1CCCC1N2` (stereo partly drawn) [Example 17-2, 4-[(3R)-3-aminopyrrolidin-1-yl]-6a, 7,8,9,9a, 10-hexahydro-6H-cyclopenta[e]pyrimido[5,4-b][1,4]oxazepin-2-amine]: the Kb on human H4 receptor [1] is 20 nM. With `CN[C@@H]1CCN(c2nc(N)nc3c2OCC(C)(C)N3)C1` [Example 1-14, (R)-7,7-Dimethyl-4-(3-(methylamino)pyrrolidin-1-yl)-7,8-dihydro-6H-pyrimido[5,4-b][1,4]oxazin-2-amine], testing at 30 µM at hERG gave an inhibition of 11%. Also, on human H4 receptor [2], the Kb was 6.31 nM. Regarding `CCC1(C)CCOc2c(ncnc2N2CC[C@@H](NC)C2)N1` (stereo partly drawn) [Example 17-9, (3R)-1-(8-ethyl-8-methyl-6,7,8,9-tetrahydropyrimido[5,4-b][1,4]oxazepin-4-yl)-N-methylpyrrolidin-3-amine], on human H4 receptor [1], the Kb is 39.8 nM.

Turning to `CC[C@@H]1CCOc2c(nc(N)nc2N2C[C@H]3CCCN[C@H]3C2)N1` [Example 17-8, 8-ethyl-4-[(4aR,7aR)-octahydro-6H-pyrrolo[3,4-b]pyridin-6-yl]-6,7,8,9-tetrahydropyrimido[5,4-b][1,4]oxazepin-2-amine], the Kb on human H4 receptor [1] was 15.8 nM. At hERG, `CN[C@@H]1CCN(c2nc(N)nc3c2OCCN3)C1` [Example 1-1, (R)-4-(3-(Methylamino)pyrrolidin-1-yl)-7,8-dihydro-6H-pyrimido[5,4-b][1,4]oxazin-2-amine] displayed an inhibition at 30 µM of 25%. The Kb on human H4 receptor [2] was 501 nM. On to `CC[C@@H]1CCOc2c(nc(N)nc2N2CC(NC)C2)N1` [Example 17-6, 8-ethyl-4-[3-(methylamino)azetidin-1-yl]-6,7,8,9-tetrahydropyrimido[5,4-b][1,4]oxazepin-2-amine], for which, at human H4 receptor [1], the Kb is 10 nM. At hERG, `Cc1cc(C)c2nc(-c3cnc(NCCCC4CCN(C)CC4)nc3C)[nH]c2c1` [Toreforant, reference compound] showed an inhibition at 30 µM of 89%. Besides, the Kb at human H4 receptor [2] is 20 nM. For `CN[C@@H]1CCN(c2nc(N)nc3c2OCC2CCCN32)C1` (stereo partly drawn) [Example 1-21, 4-((R)-3-(Methylamino)pyrrolidin-1-yl)-6a,7,8,9-tetrahydro-6H-pyrimido[5,4-b]pyrrolo[1,2-d][1,4]oxazin-2-amine] the same measures were 8.5% and 12.6 nM.

At hERG, `CNC1CN(c2ncnc3c2OC[C@@H](C(C)C)N3)C1` [Example 9-1, (R)-1-(7-Isopropyl-7,8-dihydro-6H-pyrimido[5,4-b][1,4]oxazin-4-yl)-N-methylazetidin-3-amine] displayed an inhibition at 30 µM of 18%. Also, the Kb on human H4 receptor [2] was 3.98 nM. On hERG, `Nc1nc2c(c(N3CC[C@@H](N)C3)n1)OCC(C(F)(F)F)N2` (stereo partly drawn) [Example 2-3, 4-((R)-3-Aminopyrrolidin-1-yl)-7-(trifluoromethyl)-7,8-dihydro-6H-pyrimido[5,4-b][1,4]oxazin-2-amine] showed an inhibition at 30 µM of 28%. The Kb on human H4 receptor [2] was 10 nM. `CN[C@@H]1CCN(c2nc(N)nc3c2OC[C@@]2(C)CCCN32)C1` [Example 1-22, (R)-6a-Methyl-4-((R)-3-(methylamino)pyrrolidin-1-yl)-6a,7,8,9-tetrahydro-6H-pyrimido[5,4-b]pyrrolo[1,2-d][1,4]oxazin-2-amine] displayed an inhibition at 30 µM on hERG of 45%. For the same compound, at human H4 receptor [2], the Kb is 251 nM. At hERG, `CN[C@@H]1CCN(c2nc(N)nc3c2OC(C)CN3)C1` (stereo partly drawn) [Example 1-15, 6-Methyl-4-((R)-3-(methylamino)pyrrolidin-1-yl)-7,8-dihydro-6H-pyrimido[5,4-b][1,4]oxazin-2-amine] displayed an inhibition at 30 µM of 1.5%. At human H4 receptor [2], the Kb was 398 nM. In the case of `CN[C@@H]1CCN(c2nc(N)nc3c2OCC2(CCCC2)N3)C1` [Example 17-11, 4′-[(3R)-3-(methylamino)pyrrolidin-1-yl]-6′H,8′H-spiro[cyclopentane-1,7′-pyrimido[5,4-b][1,4]oxazin]-2′-amine], on human H4 receptor [1], the Kb is 7.94 nM. Turning to `CC[C@]1(C)COc2c(nc(N)nc2N2CC[C@@H](NC)C2)N1` [Example 17-14, 7-ethyl-7-methyl-4-[(3R)-3-(methylamino)pyrrolidin-1-yl]-7,8-dihydro-6H-pyrimido[5,4-b][1,4]oxazin-2-amine], the Kb on human H4 receptor [1] is 7.94 nM. For `CN[C@@H]1CCN(c2nc(N)nc3c2OCC2(CCC2)N3)C1` [Example 17-4, 4′-[(3R)-3-(methylamino)pyrrolidin-1-yl]-6′H,8′H-spiro[cyclobutane-1,7′-pyrimido[5,4-b][1,4]oxazin]-2′-amine], the Kb on human H4 receptor [1] was 2 nM. Consider `CN[C@@H]1CCN(c2ncnc3c2OC[C@@H](C(C)C)N3)C1` [Example 7-1, (R)-1-((R)-7-Isopropyl-7,8-dihydro-6H-pyrimido[5,4-b][1,4]oxazin-4-yl)-N-methylpyrrolidin-3-amine], for which the inhibition at 30 µM against hERG turned out to be 31%. On human H4 receptor [2], the Kb was 0.631 nM. Turning to `CC[C@@H]1CCOc2c(nc(N)nc2N2CC[C@@H](N)C2)N1` [Example 17-7, 4-[(3R)-3-aminopyrrolidin-1-yl]-8-ethyl-6,7,8,9-tetrahydropyrimido[5,4-b][1,4]oxazepin-2-amine], on human H4 receptor [1], the Kb was 10 nM.
